{"source": "patent US20160113931A1", "about": "“Method of treating and/or preventing neurodegenerative diseases” (University of Macau, priority 2014, published 2016)", "key": {"[1]": {"system": "cerebellar granule neurons (CGNs)", "assay": "MPP+-induced neurotoxicity in primary cerebellar granule neurons (MTT assay)", "format": "cell-based, mice", "conditions": "10 and 30 μM, 2 h pre-treatment, 40 μM MPP+ 24 h", "description": "Cerebellar tissue slice were treated with 30 μM BHDPC with or without MPP^+ for 72 h and then were stained with PI.\nThe percentage of surviving cells was estimated by determining the activity of mitochondrial dehydrogenases with 3(4,5-dimethylthiazol-2-yl)-2,5-diphenyltetrazolium bromide (MTT) assay. After drug treatment, cells were incubated at 37° C. for 4 h in 0.5 mg/mL MTT solution. The medium was then removed, and 100 μL of DMSO was added to each well to dissolve the violet formazan crystals. The absorbance of the samples was measured at a wavelength of 570 nm with 655 nm as a reference wavelength. All values were normalized to the control groups.\nRat CGNs were prepared from 8-day-old Sprague-Dawley rats (The Animal Care Facility, The Hong Kong Polytechnic University) as described in our previous publication. Briefly, neurons were seeded at a density of 2.7×10^5 cells/ml in basal modified Eagle's medium (Invitrogen) containing 10% fetal bovine serum, 25 mM KCl, 2 mM glutamine, and penicillin (100 units/ml)/streptomycin (100 μg/ml). […]\nTo further confirm the effect of BHDPC on primary neurons, mice cerebellar granule neurons were treated with BHDPC at the indicated concentrations for 2 hours and then exposed to 40 μM MPP^+. Cell viability was measured by the MTT assay at 24 hours after the MPP^+ challenge."}, "[2]": {"system": "PKA/CREB/Bcl2 signaling pathway", "assay": "Western blotting of phosphorylated PKA, phosphorylated CREB and Bcl2 in SH-SY5Y cells", "format": "cell-based, human", "description": "Cells were pre-treated with 30 μM BHDPC for 2 h.\nCells were pre-treated with BHDPC (3, 10 and 30 μM) for 2 h and then were collected at 120 min. […] The expression ratios of phosphorylated PKA, phosphorylated CREB and Bcl2 proteins as detected by Western blotting with specific antibodies were shown in FIGS. 8B, 8C and 8D respectively.\nAfter treatment, SH-SY5Y cells were collected and washed three times with ice-cold PBS. Then the harvested cells were lysed on ice for 30 min in RIPA lysis buffer containing 1% PMSF and 1% Protease Inhibitor Cocktail and centrifuged at 12,500×g for 20 min at 4° C. The supernatant was collected and protein concentrations were determined using the BCA protein assay kit (Thermo Scientific Pierce). Aliquots of protein samples (30 μg) were boiled for 5 min at 95° C. and electrophoresed on SDS-PAGE (10% (w/v) polyacrylamide gel) and then transferred to a polyvinylidene difluoride (PVDF) membrane (Bio-Rad, Hercules, Calif.). Subsequently, the membrane was blocked with 5% (w/v) non-fat milk in PBST (PBS containing 0.1% Tween-20) for 2 h at room temperature. The blots were incubated overnight at 4° C. with primary antibodies. After washed with PBST for 20 min at room temperature, the membranes were further incubated with horseradish peroxidase-conjugated secondary antibodies for 2 h at room temperature. Finally, protein bands were visualized using an ECL plus Western blotting detection reagents (GE Healthcare, Piscataway, N.J., USA). The membranes were then scanned on a Bio-Rad ChemiDoc XRS Imaging System and the intensity of the protein bands were analyzed using the Bio-Rad Quantity One Software (4.5.2).\nTo determine which survival signaling pathway is regulated by BHDPC, SH-SY5Y cells were pre-treated with 30 μM BHDPC for 2 h, and then the phosphorylation of PKA at […] were examined by Western blot analysis. […] The inventors also determined whether BHDPC affected the phosphorylation of CREB. […] Bcl2 is a well-known anti-apoptotic protein. The inventors determined whether BHDPC affected the expression of Bcl2."}, "ROCK2": {"target": "ROCK2 (Homo sapiens, UniProt O75116)", "sequence (O75116 whole entry, species assumed, canonical isoform)": "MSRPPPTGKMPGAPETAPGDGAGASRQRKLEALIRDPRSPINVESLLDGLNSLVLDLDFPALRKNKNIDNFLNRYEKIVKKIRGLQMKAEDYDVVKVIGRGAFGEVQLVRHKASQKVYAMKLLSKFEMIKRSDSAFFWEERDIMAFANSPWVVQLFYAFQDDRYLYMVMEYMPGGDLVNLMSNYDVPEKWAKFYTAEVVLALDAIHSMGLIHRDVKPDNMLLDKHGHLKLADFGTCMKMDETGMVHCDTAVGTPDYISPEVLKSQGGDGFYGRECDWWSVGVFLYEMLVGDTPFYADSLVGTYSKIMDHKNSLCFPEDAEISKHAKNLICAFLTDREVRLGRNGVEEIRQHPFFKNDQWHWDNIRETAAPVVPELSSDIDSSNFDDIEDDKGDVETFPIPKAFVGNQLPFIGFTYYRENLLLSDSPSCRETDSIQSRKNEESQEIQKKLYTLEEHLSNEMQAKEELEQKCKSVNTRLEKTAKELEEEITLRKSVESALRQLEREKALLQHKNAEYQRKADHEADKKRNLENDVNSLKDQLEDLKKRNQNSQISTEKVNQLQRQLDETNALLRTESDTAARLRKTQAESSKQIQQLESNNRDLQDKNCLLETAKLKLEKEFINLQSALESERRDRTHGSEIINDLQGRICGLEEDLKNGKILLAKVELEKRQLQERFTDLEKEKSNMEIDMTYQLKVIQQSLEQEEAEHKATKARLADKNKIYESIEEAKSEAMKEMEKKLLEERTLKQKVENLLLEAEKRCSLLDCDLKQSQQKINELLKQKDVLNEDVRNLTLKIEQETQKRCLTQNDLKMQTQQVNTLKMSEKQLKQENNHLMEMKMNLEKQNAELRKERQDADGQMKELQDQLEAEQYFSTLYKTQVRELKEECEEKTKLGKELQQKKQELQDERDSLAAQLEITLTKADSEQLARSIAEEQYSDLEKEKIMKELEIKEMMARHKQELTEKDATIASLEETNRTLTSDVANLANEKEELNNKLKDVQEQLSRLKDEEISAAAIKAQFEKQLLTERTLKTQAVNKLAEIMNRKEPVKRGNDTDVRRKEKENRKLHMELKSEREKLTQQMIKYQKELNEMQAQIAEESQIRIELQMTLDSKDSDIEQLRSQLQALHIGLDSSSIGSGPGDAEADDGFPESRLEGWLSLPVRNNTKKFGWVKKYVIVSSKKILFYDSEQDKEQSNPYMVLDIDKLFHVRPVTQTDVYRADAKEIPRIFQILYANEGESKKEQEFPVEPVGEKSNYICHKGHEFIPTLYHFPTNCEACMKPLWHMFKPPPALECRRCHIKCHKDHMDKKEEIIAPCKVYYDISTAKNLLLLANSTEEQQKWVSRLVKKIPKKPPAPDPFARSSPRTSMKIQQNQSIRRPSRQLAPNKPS", "assay": "Kinase activity assay ROCK2", "format": "biochemical", "conditions": "read-out: ROCK 2 IC50", "description": "ROCK has two isoforms (ROCK1 and ROCK2) sharing the same downstream proteins. Bioassay and molecular docking are used to compare the characteristics of BHDPC on ROCK. […] Through molecular docking and molecular dynamics simulation, the interaction between the inhibitor and ROCK1 was shown in FIG. 17."}, "SH-SY5Y cells": {"system": "SH-SY5Y cells", "assay": "MPP+-induced mitochondrial membrane potential loss (JC-1 assay)", "format": "cell-based, human", "conditions": "2 h pre-treatment; for mitochondrial membrane potential (Δφm) compared to the control group: 2 mM MPP+, MPP+ alone 51%", "description": "(FIG. 6A) Δψm was determined by the JC-1 assay.\nJC-1 dye was used to monitor mitochondrial integrity. In brief, SH-SY5Y cells were seeded into black 96-well plates (5×10^3 cells/well). After treatment, the cells were incubated with JC-1 (10 μg/mL in medium) at 37° C. for 15 min and then washed twice with PBS. For signal quantification, the intensity of red fluorescence (excitation 560 nm, emission 595 nm) and green fluorescence (excitation 485 nm, emission 535 nm) were determined using a SpectraMax M5. Mitochondrial membrane potential (Δφm) was calculated as the ratio of JC-1 red/green fluorescence intensity and the value was normalized to the control group.\nLoss of mitochondrial membrane potential and apoptotic nuclei were hallmarks for early and late stage of apoptosis. To determine whether BHDPC could reduce MPP^+-induced mitochondrial membrane potential (Δφm) loss, the Δφm in SH-SY5Y cells was assessed by analyzing the red/green fluorescent intensity ratio of JC-1 staining (FIG. 6A)."}}, "note": "Entries after “also recorded” stand apart in the source; their conditions may differ."}
{"compound": "COc1cc(C2C(C(=O)OCc3ccccc3)=C(C)Nc3nnnn32)ccc1O", "note": "(stereo not shown) [BHDPC, benzyl 7-(4-hydroxy-3-methoxyphenyl)-5-methyl-4,7-dihydrotetrazolo[1,5-a]pyrimidine-6-carboxylate]", "values": [{"measurement": "MPP+-induced neuronal death (cell viability, MTT)", "setting": "[1]", "value": "reduced MPP^+-induced dopaminergic neuronal death; also recorded: prevented MPP^+-induced neuronal death"}, {"measurement": "phosphorylation intensity of PKA, time course", "setting": "[2]; 30 μM, 0 to 120 min, particularly at 90 and 120 min", "value": "gradually increased; also recorded: activated PKA signaling pathway"}, {"measurement": "expression of Bcl2, dose-dependent", "setting": "[2]; 3, 10 and 30 μM, 2 h", "value": "up-regulated"}, {"measurement": "phosphorylation intensity of CREB, dose-dependent", "setting": "[2]; 3, 10 and 30 μM, 2 h", "value": "increased"}, {"measurement": "phosphorylation intensity of PKA, dose-dependent", "setting": "[2]; 3, 10 and 30 μM, 2 h", "value": "increased"}, {"measurement": "IC50", "setting": "ROCK2", "value": 408, "unit": "µM"}, {"measurement": "mitochondrial membrane potential (Δφm) compared to the control group", "setting": "SH-SY5Y cells; 3 μM", "value": 53, "unit": "%"}, {"measurement": "mitochondrial membrane potential (Δφm) compared to the control group", "setting": "SH-SY5Y cells; 10 μM", "value": 64, "unit": "%"}, {"measurement": "MPP+-induced mitochondrial membrane potential (Δψm) loss, in words", "setting": "SH-SY5Y cells; 30 μM, 2 mM MPP+ 36 h", "value": "attenuated"}, {"measurement": "mitochondrial membrane potential (Δφm) compared to the control group", "setting": "SH-SY5Y cells; 30 μM", "value": 75, "unit": "%"}]}
